Assays:
CYP3A4 = CYP3A4 (Homo sapiens, UniProt P08684); test: CYP3A4 inhibition
[1] = Parallel artificial membrane permeability assay; conditions: hexadecane membrane
[2] = tested on: Hh pathway (endogenous Gli1 mRNA levels), ASZ-001 cells; test: cells; conditions: Mus musculus, ASZ001, 48 h, read-out: IC50 (Hh pathway inhibition, Gli1 mRNA), ASZ-001 cells, 48 h incubation, Mean ± SEM
Metabolic stability = conditions: human, microsomes
[3] = tested on: Hh pathway (endogenous Gli1 mRNA levels), ASZ-001 cells; conditions: at the concentrations tested
[4] = target: T1, Breast Cancer Resistance Protein (BCRP) (Homo sapiens, UniProt Q9UNQ0); test: Efflux pump substrate, BCRP; format: in vitro ADME
T1 sequence (Q9UNQ0 1-655): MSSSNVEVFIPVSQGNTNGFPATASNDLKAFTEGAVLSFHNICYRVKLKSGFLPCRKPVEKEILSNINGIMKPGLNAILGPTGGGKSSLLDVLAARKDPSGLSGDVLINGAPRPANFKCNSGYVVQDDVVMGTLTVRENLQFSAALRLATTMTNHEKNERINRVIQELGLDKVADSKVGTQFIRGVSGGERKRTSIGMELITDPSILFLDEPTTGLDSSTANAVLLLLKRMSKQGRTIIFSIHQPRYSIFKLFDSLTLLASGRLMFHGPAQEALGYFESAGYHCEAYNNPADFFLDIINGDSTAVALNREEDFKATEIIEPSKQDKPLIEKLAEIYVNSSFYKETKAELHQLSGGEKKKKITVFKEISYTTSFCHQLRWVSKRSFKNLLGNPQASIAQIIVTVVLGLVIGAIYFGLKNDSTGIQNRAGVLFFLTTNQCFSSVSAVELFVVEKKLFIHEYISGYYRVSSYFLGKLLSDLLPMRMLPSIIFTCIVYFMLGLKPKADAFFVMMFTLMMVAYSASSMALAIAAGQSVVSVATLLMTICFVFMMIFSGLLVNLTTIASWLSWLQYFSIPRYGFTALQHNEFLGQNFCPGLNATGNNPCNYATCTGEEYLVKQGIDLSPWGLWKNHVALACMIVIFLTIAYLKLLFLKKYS

P-glycoprotein (P-gp) = P-glycoprotein (P-gp) (Homo sapiens, UniProt P08183); test: Efflux pump substrate, P-gp; format: in vitro ADME
P-glycoprotein (P-gp), sequence (P08183 whole entry): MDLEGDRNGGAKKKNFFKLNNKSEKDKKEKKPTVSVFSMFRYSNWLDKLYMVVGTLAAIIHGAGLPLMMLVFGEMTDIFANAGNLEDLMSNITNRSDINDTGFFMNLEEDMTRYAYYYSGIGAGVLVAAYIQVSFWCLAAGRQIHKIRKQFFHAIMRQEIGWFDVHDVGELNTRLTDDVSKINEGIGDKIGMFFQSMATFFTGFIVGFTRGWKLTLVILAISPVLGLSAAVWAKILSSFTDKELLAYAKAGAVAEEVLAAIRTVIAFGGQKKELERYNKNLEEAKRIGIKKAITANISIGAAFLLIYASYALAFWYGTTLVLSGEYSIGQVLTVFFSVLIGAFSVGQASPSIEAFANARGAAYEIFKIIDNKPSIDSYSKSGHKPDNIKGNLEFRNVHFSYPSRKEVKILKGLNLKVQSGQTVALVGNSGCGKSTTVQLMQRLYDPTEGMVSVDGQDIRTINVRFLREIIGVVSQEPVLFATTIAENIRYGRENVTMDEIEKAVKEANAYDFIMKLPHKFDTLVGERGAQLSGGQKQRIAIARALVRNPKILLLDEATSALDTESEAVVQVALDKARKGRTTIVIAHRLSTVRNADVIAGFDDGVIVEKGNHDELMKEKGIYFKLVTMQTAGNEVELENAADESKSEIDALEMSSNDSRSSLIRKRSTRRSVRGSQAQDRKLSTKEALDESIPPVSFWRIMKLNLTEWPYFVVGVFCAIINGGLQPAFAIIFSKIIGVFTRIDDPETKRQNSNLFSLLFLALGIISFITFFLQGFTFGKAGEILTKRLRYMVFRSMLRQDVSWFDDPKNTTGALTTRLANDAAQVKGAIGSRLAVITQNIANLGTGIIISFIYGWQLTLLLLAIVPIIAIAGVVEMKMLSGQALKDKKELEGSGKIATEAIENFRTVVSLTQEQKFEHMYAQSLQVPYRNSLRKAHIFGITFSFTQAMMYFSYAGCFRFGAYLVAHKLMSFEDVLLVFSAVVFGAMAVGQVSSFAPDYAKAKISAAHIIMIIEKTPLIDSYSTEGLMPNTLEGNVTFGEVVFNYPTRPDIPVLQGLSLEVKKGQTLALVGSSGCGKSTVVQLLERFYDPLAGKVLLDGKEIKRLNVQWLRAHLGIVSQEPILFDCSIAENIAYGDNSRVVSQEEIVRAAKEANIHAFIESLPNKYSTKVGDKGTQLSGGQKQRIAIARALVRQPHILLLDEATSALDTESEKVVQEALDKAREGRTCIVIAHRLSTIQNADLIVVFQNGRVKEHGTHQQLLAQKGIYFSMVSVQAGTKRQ

CYP3A4, sequence (P08684 whole entry): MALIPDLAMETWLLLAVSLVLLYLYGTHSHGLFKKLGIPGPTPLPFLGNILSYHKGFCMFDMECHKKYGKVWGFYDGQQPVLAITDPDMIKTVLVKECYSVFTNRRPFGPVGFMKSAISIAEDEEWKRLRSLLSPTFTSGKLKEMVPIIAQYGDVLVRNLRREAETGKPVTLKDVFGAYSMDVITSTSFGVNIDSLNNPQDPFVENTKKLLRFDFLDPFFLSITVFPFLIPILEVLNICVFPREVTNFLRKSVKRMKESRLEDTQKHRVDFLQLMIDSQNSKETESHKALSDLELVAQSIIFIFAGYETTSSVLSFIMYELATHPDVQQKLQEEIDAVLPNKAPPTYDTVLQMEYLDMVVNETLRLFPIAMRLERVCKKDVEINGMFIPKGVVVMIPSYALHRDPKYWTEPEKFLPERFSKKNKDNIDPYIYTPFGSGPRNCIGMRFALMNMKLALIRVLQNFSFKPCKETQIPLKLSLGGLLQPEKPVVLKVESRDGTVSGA

| SMILES | IC50 (CYP3A4) | IC50 [2] | further results |
| --- | --- | --- | --- |
| CC[C@@H](C)n1ncn(-c2ccc(N3CCN(c4ccc(OC[C@@H]5CO[C@](C)(c6ccc(Cl)cc6Cl)O5)cc4)CC3)cc2)c1=O [Compound 2a] | > 20 µM |  |  |
| CC[C@@H](C)n1ncn(-c2ccc(N3CCN(c4ccc(OC[C@@H]5CO[C@@](C)(c6ccc(Cl)cc6Cl)O5)cc4)CC3)cc2)c1=O [Compound 2b] | 1.02 µM |  | PAMPA -log Pe [1]: 9.0 |
| C[C@@]1(c2ccc(Cl)cc2Cl)OC[C@@H](COc2ccc(N3CCN(c4ccc(NC(=O)c5ccccc5)cc4)CC3)cc2)O1 [Compound 10, N-(4-(4-(4-(((2R,4R)-2-(2,4-dichlorophenyl)-2-methyl-1,3-dioxolan-4-yl)methoxy)phenyl)piperazin-1-yl)phenyl)benzamide] |  | > 10 µM |  |
| C[C@@]1(c2ccc(Cl)cc2Cl)OC[C@@H](COc2ccc(N3CCN(c4ccc(NC(=O)c5ccc6ccccc6c5)cc4)CC3)cc2)O1 [Compound 11, N-(4-(4-(4-(((2R,4R)-2-(2,4-dichlorophenyl)-2-methyl-1,3-dioxolan-4-yl)methoxy)phenyl)piperazin-1-yl)phenyl)-2-naphthamide] |  | > 10 µM |  |
| C[C@@]1(c2ccc(Cl)cc2Cl)OC[C@@H](COc2ccc(N3CCN(c4ccc(NC(=O)c5cccnc5)cc4)CC3)cc2)O1 [Compound 13, N-(4-(4-(4-(((2R,4R)-2-(2,4-dichlorophenyl)-2-methyl-1,3-dioxolan-4-yl)methoxy)phenyl)piperazin-1-yl)phenyl)nicotinamide] | > 30 µM |  | PAMPA -log Pe [1]: 7.9 ± 0.03 |
| C[C@@]1(c2ccc(Cl)cc2Cl)OC[C@@H](COc2ccc(N3CCN(c4ccc(NC(=O)c5ccncc5)cc4)CC3)cc2)O1 [Compound 14, N-(4-(4-(4-(((2R,4R)-2-(2,4-dichlorophenyl)-2-methyl-1,3-dioxolan-4-yl)methoxy)phenyl)piperazin-1-yl)phenyl)isonicotinamide] |  | > 10 µM |  |
| C[C@]1(c2ccc(Cl)cc2Cl)OC[C@@H](COc2ccc(N3CCN(c4ccc(NC(=O)c5ccccc5)cc4)CC3)cc2)O1 [Compound 15, N-(4-(4-(4-(((2S,4R)-2-(2,4-dichlorophenyl)-2-methyl-1,3-dioxolan-4-yl)methoxy)phenyl)piperazin-1-yl)phenyl)benzamide] |  | > 10 µM |  |
| C[C@]1(c2ccc(Cl)cc2Cl)OC[C@@H](COc2ccc(N3CCN(c4ccc(NC(=O)c5ccc6ccccc6c5)cc4)CC3)cc2)O1 [Compound 16, N-(4-(4-(4-(((2S,4R)-2-(2,4-dichlorophenyl)-2-methyl-1,3-dioxolan-4-yl)methoxy)phenyl)piperazin-1-yl)phenyl)-2-naphthamide] |  | > 10 µM |  |
| C[C@]1(c2ccc(Cl)cc2Cl)OC[C@@H](COc2ccc(N3CCN(c4ccc(NC(=O)c5cccnc5)cc4)CC3)cc2)O1 [Compound 18, N-(4-(4-(4-(((2S,4R)-2-(2,4-dichlorophenyl)-2-methyl-1,3-dioxolan-4-yl)methoxy)phenyl)piperazin-1-yl)phenyl)nicotinamide] | > 20 µM |  |  |
| C[C@]1(c2ccc(Cl)cc2Cl)OC[C@@H](COc2ccc(N3CCN(c4ccc(NC(=O)c5ccncc5)cc4)CC3)cc2)O1 [Compound 19, N-(4-(4-(4-(((2S,4R)-2-(2,4-dichlorophenyl)-2-methyl-1,3-dioxolan-4-yl)methoxy)phenyl)piperazin-1-yl)phenyl)isonicotinamide] |  | > 10 µM |  |
| C[C@@]1(c2ccc(Cl)cc2Cl)OC[C@@H](COc2ccc(N3CCN(c4ccc(NC(=O)c5cccc(O)c5)cc4)CC3)cc2)O1 [Compound 27, N-(4-(4-(4-(((2R,4R)-2-(2,4-dichlorophenyl)-2-methyl-1,3-dioxolan-4-yl)methoxy)phenyl)piperazin-1-yl)phenyl)-3-hydroxybenzamide] | > 30 µM |  | microsomal CLint (Metabolic stability): < 3 µL/min/mg |
| C[C@]1(c2ccc(Cl)cc2Cl)OC[C@@H](COc2ccc(N3CCN(c4ccc(NC(=O)c5ccoc5)cc4)CC3)cc2)O1 [Compound 35, N-(4-(4-(4-(((2S,4R)-2-(2,4-dichlorophenyl)-2-methyl-1,3-dioxolan-4-yl)methoxy)phenyl)piperazin-1-yl)phenyl)furan-3-carboxamide] |  |  | Hh pathway inhibition, result in words [3]: inactive |
| C[C@]1(c2ccc(Cl)cc2Cl)OC[C@@H](COc2ccc(N3CCN(c4ccc(NC(=O)c5ccsc5)cc4)CC3)cc2)O1 [Compound 36, N-(4-(4-(4-(((2S,4R)-2-(2,4-dichlorophenyl)-2-methyl-1,3-dioxolan-4-yl)methoxy)phenyl)piperazin-1-yl)phenyl)thiophene-3-carboxamide] |  |  | Hh pathway inhibition, result in words [3]: inactive |
| CCC(C)n1ncn(-c2ccc(N3CCN(c4ccc(OCC5COC(Cn6cncn6)(c6ccc(Cl)cc6Cl)O5)cc4)CC3)cc2)c1=O (stereo not shown) [ITZ, Itraconazole] |  |  | Efflux Pump Substrates, BCRP [4]: not a substrate; Efflux Pump Substrates, P-gp (P-glycoprotein (P-gp)): not a substrate; half-life (Metabolic stability): 27 ± 6.2 min |

— paper PMC7450990 (Journal of medicinal chemistry, 2019)
